In US11667651B2, “Aminopyridine derivatives as phosphatidylinositol phosphate kinase inhibitors” (HiberCell, Inc., priority 2017, dated 2023):

Key:
Assay type in all cases: biochemical
PIP4K2A [1] = target: T1, PIP4K2A (Homo sapiens, UniProt P48426); assay: ADP-glo kinase assay PIP4K 2A (Table 3); set-up: made in house; host or cells: E. coli; conditions: compounds listed under IC50 bins
T1 sequence (P48426 1-406): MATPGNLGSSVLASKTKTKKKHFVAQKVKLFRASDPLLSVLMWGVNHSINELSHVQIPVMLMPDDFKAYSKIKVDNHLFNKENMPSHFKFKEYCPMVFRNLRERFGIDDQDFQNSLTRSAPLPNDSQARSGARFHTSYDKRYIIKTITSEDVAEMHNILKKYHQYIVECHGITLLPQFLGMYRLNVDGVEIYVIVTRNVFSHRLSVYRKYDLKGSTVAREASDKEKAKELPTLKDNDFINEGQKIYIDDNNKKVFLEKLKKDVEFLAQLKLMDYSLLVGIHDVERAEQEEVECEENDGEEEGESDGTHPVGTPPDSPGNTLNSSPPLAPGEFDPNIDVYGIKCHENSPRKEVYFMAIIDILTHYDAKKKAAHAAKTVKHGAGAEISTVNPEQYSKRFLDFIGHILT
Procedure, shortened: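 Full-length PIP4K2A (4 nM in the mix) with 100 μM PI(5)P diC8 pre-incubated 15 min with compound in MOPS pH 7.2, 25 mM MgCl2; ATP added (60 μM solution), 1 h at RT. ADP formed read by ADP-Glo luminescence; 10-point curves versus DMSO controls fitted to IC50.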

PIP4K2A [2] = target: T1, PIP4K2A; assay: Kinase Assay PIP4K2 A (Table 2); set-up: 4 nM PIP4K2A (full length protein, SignalChem); purchased SignalChem; conditions: compounds listed under IC50 bins
Procedure, shortened: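 Full-length PIP4K2A (4 nM in the added mix, with 100 μM PI(5)P diC8) pre-incubated 15 min at RT with compounds (10-point, 3-fold series) in 20 mM MOPS pH 7.2, 25 mM MgCl2, 0.005% Tween 20. ATP added from a 60 μM solution, 1 h at RT; ADP-Glo luminescence, IC50 fitted from % inhibition versus DMSO.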

PIP4K2B = target: T2, PIP4K2B (Homo sapiens, UniProt P78356); assay: Trans-FI P kinase assay PIP4K2B (Table 4); conditions: compounds listed under IC50 bins; read-out: Trans-FI P kinase assays: PIP4K2B IC50
T2 construct: made in house; host or cells: E. coli
T2 sequence (P78356 1-416): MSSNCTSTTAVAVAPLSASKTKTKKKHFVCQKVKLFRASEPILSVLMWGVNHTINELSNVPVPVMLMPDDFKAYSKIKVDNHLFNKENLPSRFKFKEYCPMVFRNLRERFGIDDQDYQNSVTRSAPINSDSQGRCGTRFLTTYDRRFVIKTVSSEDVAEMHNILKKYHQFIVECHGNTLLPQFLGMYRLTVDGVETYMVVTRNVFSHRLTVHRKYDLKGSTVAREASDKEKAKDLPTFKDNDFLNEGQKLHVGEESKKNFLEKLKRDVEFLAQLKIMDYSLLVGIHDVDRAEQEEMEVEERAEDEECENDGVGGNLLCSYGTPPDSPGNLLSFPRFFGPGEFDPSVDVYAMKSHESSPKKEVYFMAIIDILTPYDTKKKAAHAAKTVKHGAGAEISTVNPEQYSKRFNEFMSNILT
Procedure, shortened: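 Transcreener FI detection (Ex 584/Em 623) of GDP, converted via calibration curve, gives IC50 from residual activity versus log concentration (highest 4.8 μM). Reaction: 80 μM PI5P plus DOPE carrier, 100 μM GTP, 5 nM GST-tagged enzyme, pH 7.3 HEPES with MgCl2 and 5% DMSO, 2 h after 1 h enzyme-compound preincubation at 27° C.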

Row | Compound | IC50 (PIP4K2A [1]) [nM] | IC50 (PIP4K2A [2]) [nM] | IC50 (PIP4K2B) [nM]
1 | O=C1C[C@@H](O)CN1c1ccc(-c2ccc(Nc3cnc4c(c3)N3C(=O)CC[C@H]3CO4)nc2)cc1 [Example 236, (S)-2-((5-(4-((R)-4-hydroxy-2-oxopyrrolidin-1-yl)phenyl)pyridin-2-yl)amino)-6,6a,7,8-tetrahydro-9H-pyrido[2,3-b]pyrrolo[1,2-d][1,4]oxazin-9-one] | 100 to 1000 | 100 to 1000 | 10 to 100
2 | O=C1CCCN1c1ccc(-c2ccc(Nc3cnc4c(c3)OCCO4)nc2)cc1 [Example 87, 1-(4-(6-((2,3-dihydro-[1,4]dioxino[2,3-b]pyridin-7-yl)amino)pyridin-3-yl)phenyl)pyrrolidin-2-one] | 100 to 1000 | 10 to 100 | 10 to 100
3 | O=C1CCCN1c1ccc(-c2ccc(Nc3cnc4c(c3)N(S(=O)(=O)C3CC3)CCO4)nc2)cc1 [Example 154, 1-(4-(6-((1-(cyclopropylsulfonyl)-2,3-dihydro-1H-pyrido[2,3-b][1,4]oxazin-7-yl)amino)pyridin-3-yl)phenyl)pyrrolidin-2-one] | 10 to 100 | 10 to 100 | 10 to 100
4 | CS(=O)(=O)N1CCOc2ncc(Nc3ccc(-c4ccc(N5CCCC5=O)cc4)cn3)cc21 [Example 156, 1-(4-(6-((1-(methylsulfonyl)-2,3-dihydro-1H-pyrido[2,3-b][1,4]oxazin-7-yl)amino)pyridin-3-yl)phenyl)pyrrolidin-2-one] | 10 to 100 | 1 to 10 | 10 to 100
5 | CN(C)C(=O)c1ccc(-c2ccc(Nc3cncc(NC(=O)c4ccc(F)cc4)c3)nc2)cc1 [Example 139, 4-(6-((5-(4-fluorobenzamido)pyridin-3-yl)amino)pyridin-3-yl)-N,N-dimethylbenzamide] | 10 to 100 | 10 to 100 | 10 to 100
6 | COc1ncc(Nc2ccc(-c3ccc(N4CCCC4=O)cc3)cn2)cc1NS(C)(=O)=O [Example 159, N-(2-methoxy-5-((5-(4-(2-oxopyrrolidin-1-yl)phenyl)pyridin-2-yl)amino)pyridin-3-yl)methanesulfonamide] | 100 to 1000 | 10 to 100 | 10 to 100
7 | COc1cc(Nc2cnc3c(c2)N2C(=O)CC[C@H]2CO3)ncc1-c1ccc(N2CCCC2=O)cc1 [Example 179, (S)-2-((4-methoxy-5-(4-(2-oxopyrrolidin-1-yl)phenyl)pyridin-2-yl)amino)-6,6a,7,8-tetrahydro-9H-pyrido[2,3-b]pyrrolo[1,2-d][1,4]oxazin-9-one] | 1 to 10 | ≤ 1 | 1 to 10
8 | O=C(c1cccc2ncc(Nc3ccc(-c4ccc(N5CCCC5=O)cc4)cn3)cc12)N1CCC(O)C1 (stereo not drawn) [Example 149, 1-(4-(6-((5-(3-hydroxypyrrolidine-1-carbonyl)quinolin-3-yl)amino)pyridin-3-yl)phenyl)pyrrolidin-2-one] | > 1000 | 100 to 1000 | > 1000
9 | CN(C)C(=O)c1ccc(-c2ccc(Nc3cncc(NC(=O)c4cccnc4)c3)nc2)cc1 [Example 129, N-(5-((5-(4-(dimethylcarbamoyl)phenyl)pyridin-2-yl)amino)pyridin-3-yl)nicotinamide] | 100 to 1000 | 10 to 100 | 10 to 100
10 | COC(=O)N1CCOc2ncc(Nc3ccc(-c4ccc(N5CCCC5=O)cc4)cn3)cc21 [Example 151, methyl 7-((5-(4-(2-oxopyrrolidin-1-yl)phenyl)pyridin-2-yl)amino)-2,3-dihydro-1H-pyrido[2,3-b][1,4]oxazine-1-carboxylate] | 1 to 10 | 1 to 10 | 10 to 100
11 | CN(C)C(=O)c1ccc(-c2ccc(Nc3cncc(NC(=O)c4ccc(N)cc4)c3)nc2)cc1 [Example 116, 4-(6-((5-(4-aminobenzamido)pyridin-3-yl)amino)pyridin-3-yl)-N,N-dimethylbenzamide] | 10 to 100 | 10 to 100 | 10 to 100
12 | O=C1CCCN1c1ccc(-c2ccc(Nc3cnc4c(c3)N3C(=O)CC[C@H]3CO4)nc2)c(F)c1 [Example 191, (S)-2-((5-(2-fluoro-4-(2-oxopyrrolidin-1-yl)phenyl)pyridin-2-yl)amino)-6,6a,7,8-tetrahydro-9H-pyrido[2,3-b]pyrrolo[1,2-d][1,4]oxazin-9-one] | 10 to 100 | 1 to 10 | 10 to 100
13 | O=C1CCCN1c1ccc(-c2ccc(Nc3cnc4c(c3)N3C(=O)C(O)C[C@H]3CO4)nc2)cc1 (stereo partly drawn) [Example 268, (6aS)-8-hydroxy-2-((5-(4-(2-oxopyrrolidin-1-yl)phenyl)pyridin-2-yl)amino)-6,6a,7,8-tetrahydro-9H-pyrido[2,3-b]pyrrolo[1,2-d][1,4]oxazin-9-one] | 10 to 100 | 1 to 10 | 10 to 100
14 | O=C(c1cccc2ncc(Nc3ccc(-c4ccc(N5CCCC5=O)cc4)cn3)cc12)N1CCCC1 [Example 148, 1-(4-(6-((5-(pyrrolidine-1-carbonyl)quinolin-3-yl)amino)pyridin-3-yl)phenyl)pyrrolidin-2-one] | > 1000 | 100 to 1000 | > 1000
15 | CC(C)c1cc(Nc2cnc3c(c2)N2C(=O)CC[C@H]2CO3)ncc1-c1ccc(N2CCCC2=O)cc1 [Example 177, (S)-2-((4-isopropyl-5-(4-(2-oxopyrrolidin-1-yl)phenyl)pyridin-2-yl)amino)-6,6a,7,8-tetrahydro-9H-pyrido[2,3-b]pyrrolo[1,2-d][1,4]oxazin-9-one] | 1 to 10 | ≤ 1 | 1 to 10
16 | O=C1CCCN1c1ccc(-c2cnc(Nc3cnc4c(c3)N3C(=O)CC[C@H]3CO4)cc2C2CC2)cc1 [Example 178, (S)-2-((4-cyclopropyl-5-(4-(2-oxopyrrolidin-1-yl)phenyl)pyridin-2-yl)amino)-6,6a,7,8-tetrahydro-9H-pyrido[2,3-b]pyrrolo[1,2-d][1,4]oxazin-9-one] | 1 to 10 | 1 to 10 | 1 to 10
17 | CN(C)C(=O)c1ccc(-c2ccc(Nc3cncc(NC(=O)c4ccnc(N)c4)c3)nc2)cc1 [Example 131, 2-amino-N-(5-((5-(4-(dimethylcarbamoyl)phenyl)pyridin-2-yl)amino)pyridin-3-yl)isonicotinamide] | 10 to 100 | 1 to 10 | 10 to 100
18 | CN(C)C(=O)c1ccc(-c2ccc(Nc3cnc4c(c3)NCCO4)nc2)cc1 [Example 46, 4-(6-((2,3-dihydro-1H-pyrido[2,3-b][1,4]oxazin-7-yl)amino)pyridin-3-yl)-N,N-dimethylbenzamide] | 100 to 1000 | 10 to 100 | 10 to 100
19 | COc1ccc(C(=O)Nc2cncc(Nc3ccc(-c4ccc(C(=O)N(C)C)cc4)cn3)c2)cc1 [Example 142, 4-(6-((5-(4-methoxybenzamido)pyridin-3-yl)amino)pyridin-3-yl)-N,N-dimethylbenzamide] | 10 to 100 | 10 to 100 | 10 to 100
20 | O=C1C[C@H](O)CN1c1ccc(-c2ccc(Nc3cnc4c(c3)N3C(=O)CC[C@H]3CO4)nc2)cc1 [Example 237, (S)-2-((5-(4-((S)-4-hydroxy-2-oxopyrrolidin-1-yl)phenyl)pyridin-2-yl)amino)-6,6a,7,8-tetrahydro-9H-pyrido[2,3-b]pyrrolo[1,2-d][1,4]oxazin-9-one] | 100 to 1000 | 100 to 1000 | > 1000
21 | CC(C)(O)C(=O)N1CCOc2ncc(Nc3ccc(-c4ccc(N5CCCC5=O)cc4)cn3)cc21 [Example 238, 1-(4-(6-((1-(2-hydroxy-2-methylpropanoyl)-2,3-dihydro-1H-pyrido[2,3-b][1,4]oxazin-7-yl)amino)pyridin-3-yl)phenyl)pyrrolidin-2-one] | 1 to 10 | 1 to 10 | 10 to 100
